This is an account of results in ChEMBL document CHEMBL1155626, “Metabolites of Colletotrichum gloeosporioides, an endophytic fungus in Artemisia mongolica” (2000).

Converted amounts (≈) assume the structure as drawn.

Format in all cases: functional
One assay deals with Bacillus subtilis. The assay can be described thus: Antimicrobial activity against Bacillus subtilis after 48 hrs by paper disk assay.
For another assay, the system named is Micrococcus luteus. Briefly: Antimicrobial activity against Sarcina lutea after 48 hrs by paper disk assay.
Another assay has as its system Staphylococcus aureus. Briefly: Antimicrobial activity against Staphylococcus aureus after 48 hrs by paper disk assay.
A further assay relates to Helminthosporium. The assay can be described thus: Antimicrobial activity against Helminthosporium sativum after 96 hrs by paper disk assay.

The MIC is the least concentration at which growth counts as inhibited. The low end stands for a more susceptible organism, the high end for a less susceptible organism. For the molecule `CC1(C)S[C@@H]2[C@H](NC(=O)[C@H](N)c3ccccc3)C(=O)N2[C@H]1C(=O)O` [AMPICILLIN], the results for the minimum inhibitory concentration (MIC) with Bacillus subtilis and against Micrococcus luteus were 0.05 µg/mL (≈ 0.143 µM) and 0.01 µg/mL (≈ 0.0286 µM), respectively.

For `COc1c(C)c(OC(=O)c2c(C)cc(O)cc2O)c(C)c(C(=O)Oc2cc(O)c(C(=O)O)c(C)c2C)c1C` [COLLETOTRIC ACID], the MIC in the assay on Bacillus subtilis was 25 µg/mL (≈ 47.7 µM); in the assay on Staphylococcus aureus, 50 µg/mL (≈ 95.3 µM); in the assay with Micrococcus luteus, 50 µg/mL (≈ 95.3 µM); against Helminthosporium it was 50 µg/mL (≈ 95.3 µM).

`CC(C)(C)C(=O)C(Oc1ccc(Cl)cc1)n1cncn1` (configuration not stated) [TRIADIMEFON] came in with an MIC in the assay with Helminthosporium of 20 µg/mL (≈ 68.1 µM).
